Measured values reported in patent US7538193B2, “NO-modified hemoglobins and uses therefor” (Duke University, priority 1995, dated 2009).

Assays:
[1] = Endogenous SNO-Hb and Hb(FeII)NO in rat blood by photolysis-chemiluminescence; format: in vivo; conditions: 45 minutes after infusion of 50 mg/kg
Text: A highly sensitive photolysis-chemiluminescence methodology was employed, which had been used for measuring RSNOs (S-nitrosothiols) in biological systems (Gaston, B., et al., Proc. Natl. Acad. Sci. USA 90:10957-10961 (1993); Stamler, J. S., et al., Proc. Natl. Acad. Sci USA 89:7674-7677 (1992)). The method involves photolytic liberation of NO from the thiol, which is then detected in a chemiluminesence spectrometer by reaction with ozone. […]
Blood was obtained from the left ventricle (arterial) and jugular vein (venous) of anesthetized Sprague-Dawley rats. […] In 24 rats, Hb samples were divided in two aliquots which were then treated or not treated with 10-fold excess HgCl2 over protein concentration as measured by the method of Bradford. […] Under these conditions, any nitrite present was converted to S-nitrosoglutathione, which was then measured by photolysis-chemiluminescence (detection limit ˜1 nM). SNO-Hb was present in all arterial samples, and levels determined by this method (286±33 nM) were virtually identical to and not statistically different from those shown in Table 2. […]
A highly sensitive photolysis-chemiluminescence methodology was employed. […] The method involves photolytic liberation of NO from the thiol, which is then detected in a chemiluminesence spectrometer by reaction with ozone. […]

Sprague-Dawley rat = assay: Mean arterial blood pressure in anesthetized rats after femoral vein bolus (Examples 5, 6); format: in vivo; conditions: for blood pressure response: bolus into femoral vein, 2-200 nmol/kg
Text: Rats were anesthetized by intraperitoneal injection of pentobarbital and the femoral arteries and veins accessed by local cut down. The artery was then cannulated and the blood pressure monitored continuously using a Viggo Spectramed pressure transducer attached to a Gould recorder. An IBM PC (DATA Q Codas) was used for data acquisition.

rabbit aortic ring = assay: Vessel ring bioassay of SNO-Hb preparations (Examples 4, 13); format: cell-based; conditions: for effect of added glutathione on the dose-response: glutathione 100 ∥M in bioassay chambers (FIG. 4B); for vasoactivity in vascular ring bioassay: no added thiol (FIG. 4A)
Method: Details of the vessel ring bioassay have been published (Stamler, J. S., et al., Proc. Natl. Acad. Sci. USA 89:444-448 (1992)). SNO-Hb(FeII)O2 preparations were synthesized with 10-fold excess S-nitrosocysteine (CYSNO) over Hb(FeII)O2 protein (2% borate, 0.5 mM EDTA, ˜15 min incubation), after which desalting was performed across Sephadex G-25 columns. CYSNO was synthesized in 0.5 N HCl, 0.5 mM EDTA and then neutralized (1:1) in 1 M phosphate buffer containing 0.5 mM EDTA. […] The latter was synthesized by treatment of Hb(FeII)O2 with excess ferricyanide, followed by desalting across G-25 columns. SNO-Hb concentrations were verified spectroscopically and the S-nitrosothiol content was determined by the method of Saville (Stamler, J. S., et al., Proc. Natl. Acad. Sci USA 89:444-448 (1992)). The S—NO/tetramer stoichiometry for both SNO-Hb preparations was ˜2. Oxidation of the heme was undetectable by uv-spectrophotometric methods.
The aortic ring bioassay was performed as described in Example 4. The product of the reaction in which a ratio of 100:1 CYSNO/Hb tetramer was used, contains 2 SNOs as well as NO attached to the heme.

[2] = Decomposition and stability of SNO-Hb forms; format: physicochemical; conditions: as synthesized in Example 27
Method: Hbs in PBS (0.5 mM EDTA, pH 7.4) were incubated in air (oxy) or in a tonometer previously evacuated of O2 (deoxy). SNO-Hb(FeII)O2 decomposition was determined by the method of Saville (Saville, B., Analyst 83:670-672 (1958)). Spontaneous decomposition of SNO-Hb(FeII) was followed spectrophotometrically by formation of Hb(FeII)NO. Transnitrosation reactions with glutathione were performed by addition of 100-fold excess glutathione over protein (50 μM), immediate processing of the reaction mixture under anaerobic conditions followed by rapid TCA precipitation, and analysis of RSNO in the supernatant. Rates of NO group transfer were too rapid to measure accurately by the standard methods used in this study.

platelets = assay: ADP-induced aggregation of platelet-rich plasma; format: cell-based, human; conditions: 5 μM ADP
Method: Venous blood, anticoagulated with […] sodium citrate, was obtained from volunteers who had not consumed acetylsalicylic acid or any other platelet-active agent for at least 10 days. Platelet-rich plasma was prepared by centrifugation at 150×g for 10 minutes at 25° C. and was used within 2 hours of collection. Platelet counts were determined with a Coulter counter (model ZM) to be 1.5 to 3×10^8/ml.
Aliquots (0.3 ml) of platelets were incubated at 37° C. and stirred at 1000 rpm in a PAP-4 aggregometer (Biodata, Hatsboro, Pa.). Hemoglobins were preincubated with platelets for 10 min and aggregations were induced with 5 μM ADP. Aggregations were quantified by measuring the maximal rate and extent of change of light transmittance and are expressed as a normalized value relative to control aggregations performed in the absence of hemoglobin.

[3] = system: rat brain (caudatoputamen nucleus); assay: Brain blood flow in rats by H2 clearance (Example 12); format: in vivo; conditions: Example 12, FIG. 10
Method: SNO-Hb(FeII)O2, having a SNO/Hb ratio of 2, was prepared (from HbA0) by reaction with S-nitrosothiol. Rats breathing 21% O2 were injected (time 0) with Hbs prepared from HbA0 as indicated in FIG. 10 (open circles, SNO-Hb (100 nmol/kg); filled circles, SNO-Hb (1000 nmol/kg); filled squares, unmodified Hb (1000 nmol/kg)). Three rats were used per experiment. Blood flow was measured in brain using the H2 clearance method; microelectrodes were placed in the brain stereotactically. […] NO group release is promoted by local tissue hypoxia.

cGMP in platelets = assay: cGMP radioimmunoassay in platelet rich plasma; format: cell-based; conditions: 1, 10 and 100 μM; 5 min incubation
Method: Platelet rich plasma (PRP) was incubated with either hemoglobin, SNO-oxy Hb, or SNO-metHb for 5 min, after which the assay was terminated by the addition of 0.5 ml of ice cold trichloroacetic acid to 10%. Ether extractions of the supernatant were performed to remove trichloroacetic acid, and acetylation of samples with acetic anhydride was used to increase the sensitivity of the assay. Measurements of cyclic GMP were performed by radioimmunoassay (Stamler, J. et al., Circ. Res. 65:789-795 (1989)).

[4] = Transnitrosation between SNO-Hb and glutathione; format: biochemical; conditions: SNO-Hb 100 μM, glutathione 10 mM
Text: Data are presented as the amount of GSNO formed relative to the starting SNO-Hb concentration.
Thiol/SNO-Hb exchange, forming GSNO, was verified chemically (Stamler, J. S., et al., Proc. Natl. Acad. Sci. USA, 89:444-448 (1992)) following trichloroacetic acid precipitation (n=5).

Compound	depletion of SNO-Hb [1]	depletion of total Hb-NO [1]	increase in blood pressure (Sprague-Dawley rat; 50 mg/kg)	effect of added glutathione on the dose-response (rabbit aortic ring)	vasoactivity in vascular ring bioassay (rabbit aortic ring)	stability of the isolated preparation [2]	inhibition of platelet aggregation (platelets; 10 nM to 100 μM preincubated 10 min)	duration of effects on blood flow in rat brain [3]	blood pressure response (Sprague-Dawley rat)	concentration of cGMP measured (cGMP in platelets)	rate of NO group transfer to glutathione [4]	concentrations at which platelet aggregation is inhibited (platelets; preincubated 10 min)	time for blood pressure to normalize after hypotensive response (Sprague-Dawley rat)	mean arterial pressure, post (Sprague-Dawley rat; after 200 nmol/kg (highest dose))	mean arterial pressure, pre (Sprague-Dawley rat; before 200 nmol/kg infusion)
CNC(=N)NCCC[C@H](N)C(=O)O [L-NMMA, N^ω-monomethyl-L-arginine]	82%	50±18%	about 20 mm Hg												
SNO-Hb(FeII)O2: S-nitroso-oxyhemoglobin made from oxyHb with excess S-nitrosocysteine				potentiates the dose-response	modest NO-like activity	quite stable	some inhibition of platelet aggregation at the higher concentrations tested	over 20 minutes	did not exhibit hypertensive effects						
SNO-Hb(FeIII): S-nitroso-methemoglobin, S-nitrosylated methemoglobin				potentiates the dose-response	vasodilator	inherently unstable			hypotensive responses	less than that of native Hb	more rapid	≥ 1 µM	10 min	74±6 mm Hg	108±4 mm Hg
